EP1986011A2, “Peptide epitopes recognized by disease promoting CD4+ T lymphocytes” (MGI PHARMA Biologics, Inc., priority 1999, dated 2008)

Legend:
[1] = test system: isolated HLA-DR4 molecules; assay: Binding inhibition assay: inhibition of binding of biotinylated invariant chain indicator peptide; set-up: species or system human; conditions: HLA-DR4 10 µg/ml, indicator peptide 1 µM, varying concentrations of test peptide, overnight at room temperature (Fig. 3)
Procedure: Synthetic peptides with amino acid sequences based on the 6 core regions identified by the IMF were tested for their ability to bind to isolated HLA-DR4 molecules in a binding inhibition assay performed essentially as previously described [Chicz et al. (1997), J. Immunol. 159: 4935-4942]. In brief, aliquots of immunopurified preparation of HLA-DR4 (final concentration of 10 µg/ml) were incubated with a biotinylated HLA-DR4 binding peptide (consisting of residues 98-117 of class II MHC invariant chain) ("the indicator peptide") (1 µM) and varying concentrations of the test peptides in 0.2 ml tubes. After an overnight incubation at room temperature, the contents of each tube were transferred to a well of a 96-well plastic microtiter plate precoated with anti-HLA-DR4 antibody. The microtiter plates were rocked for 60 min at room temperature and unbound material was removed by rigorous washing. The relative amount of bound standard peptide in each well was determined by measuring color development after addition of streptavidin-conjugated alkaline phosphatase, washing, and adding a chromogenic alkaline phosphatase substrate.
In order to test for the ability of the 6 consensus peptides representing the 6 core regions defined by the IMF described in Example 1, a binding inhibition assay was performed (Fig. 3). […]

peripheral blood T cells = assay: T cell proliferation assay (Epitope Verification) with synthetic IA-2 peptides; assay type: cell-based, human; set-up: key: significant ("POS" in Table 2) proliferative responses; conditions: HLA-DR4 IDDM patient DC (I), DRB1 genotype 0403.0405; peptide 10 µg/ml, 5 days; significant = SI >2.0 and >40% wells positive
Procedure: To establish that peptide epitopes identified are relevant to IDDM (i.e., that they are recognized by CD4+ T cells of patients with IDDM or pre-IDDM expressing the DR4 molecule but not by non-diabetic controls also expressing the DR4 molecule), T cell proliferation assays were carried out using synthetic peptides having amino acid sequences based upon the peptides identified by mass spectrometry to be derived from IA-2ic. Peptides were synthesized using Fmoc chemistry with an Applied Biosystems SYNERGY peptide synthesizer and purified by preparative RP-HPLC on a Waters 2690 Alliance system equipped with a Radial Compression Module. […] Peripheral blood mononuclear cells from recent onset IDDM patients (<6 months from diagnosis) and healthy controls expressing the appropriate HLA DR4 molecules were separated by density gradient centrifugation and co-cultured in wells of 96-well U-bottom plates with peptides at a concentration of 10 µg/ml for 5 days in 150 µl RPMI 1640/10% pooled normal AB serum, followed by pulsing with 0.5 µCi [^3H]-thymidine/well and harvesting onto filters for radioactivity counting measured in counts per minute (cpm). […] Results were expressed as a stimulation index (SI) which is the ratio of the cpm obtained from cultures containing peptide to the cpm obtained from cultures without peptide (mean cpm of 12 wells in each case). […]

## Ii-c: a peptide consisting of residues 98-117 of class II MHC invariant chain (PKPPKPVSKMRMATPLLMQA) [reference compound]
[1]
  binding to HLA-DR4 molecules: bind with intermediate avidity

## LAKEWQALCAYQAEPNTCATAQGE [709-732, peptide consisting of residues 709-732 of IA-2]
Peripheral blood T cells
  T cell response to IA-2 peptide: POS
[1]
  binding to HLA-DR4 molecules: bind strongly
